Test results published in patent publication EP0414755B1, “INTERACTION SYSTEM COMPRISING A SURFACTANT-STABILIZED DISPERSE AQUEOUS PHASE CONTAINING AN ANTIBODY OR ANTIBODY FRAGMENT” (IGEN, INC., priority 1988, dated 1989).

Key:
[1] = test system: 48-G7 antibody (monoclonal IgG made against a p-nitrophenylphosphonate hapten); test: 48-G7 antibody-catalyzed hydrolysis of p-nitrophenylcarbonate in aqueous tris buffer, inhibition by transition state analog; format: biochemical; conditions: 24 µM inhibitor, 90 µg/ml 48-G7, 10 mM tris buffer pH 8.5
Description: A solution of the 48-G7 antibody was purified from ascites fluid by Protein A chromatography. Following dialysis of the IgG fractions which were obtained into 10 mM tris buffer, 4.0 ml of a 3.0 mg/ml solution of this protein was lyophilyzed to dryness. The protein powder was then resuspended in 1.5 ml of 10 mM tris buffer (pH 8.5). When 10 µl of this antibody solution was added to one milliliter of buffer, a protein concentration of 0.090 mg/ml resulted (as determined from 280 nm and 260 nm absorbances). Thus, the stock antibody solution was 9.0 mg/ml.
The rate of antibody catalyzed hydrolysis of p-nitrophenylcarbonate was determined by adding 15 µl of a 50 mM p-nitrophenylcarbonate (p-NPC) solution dissolved in tetrahydrofuran to 3.0 ml of 10 mM tris buffer (pH 8.5). After this solution was mixed to homogeneity, 1.0 ml was transferred into a reference cuvette and 1.0 ml was transferred into a sample cuvette. An assay was initiated by addition of 10 µl of the 48-G7 antibody solution (0.090 mg). The progress of the reaction was monitored with a Hitachi Model 3200 double beam spectrophotometer (to screen out the rate of solvent-induced background hydrolysis) at 400 nm. The extinction coefficient for the product, p-nitrophenol, was 18,300 M^-1 cm^-1 at pH 8.5.

[2] = test system: 48-G7 antibody (monoclonal IgG made against a p-nitrophenylphosphonate hapten); test: 48-G7 antibody-catalyzed hydrolysis of p-nitrophenylcarbonate in AOT/iso-octane microemulsion, inhibition by transition state analog; format: biochemical; conditions: 24 µM final concentration of inhibitor; 50 mM AOT in iso-octane, 888 µM p-NPC; uninhibited rate 0.00028 Abs/minute
Description: The rate of 48-G7 antibody-catalyzed hydrolysis of p-NPC was determined in a 50 mM solution of sodium bi-(2-ethylhexyl) sulfosuccinate ("AOT") in iso-octane containing 888 µM of p-NPC. First 20 ml of the iso-octane solution containing 0.445 g of AOT (M.W.=445g) and 3.5 mg of p-NPC (M.W.-197g) were prepared. To this solution […] (pH 8.5) and 10 µl of the 48-G7 antibody solution were added. A microemulsion of disperse aqueous phase in the iso-octane was obtained by mixing. The hydrolysis of p-NPC and the production of p-nitrophenol was monitored at 400 nm, although an accurate conversion between 400 nm absorbance and moles of p-nitrophenol formed was not possible because the pH inside the microemulsified aqueous phase particles could not be accurately determined.
Upon addition of the 48-G7 antibody solution, the biphasic system became turbid as the antibody-containing, microemulsified aqueous phase particles formed. Subsequently, absorbance at 400 nm began to increase as p-nitrophenol was formed. The rate of 400 nm absorbance increase was 0.00028 Abs/minute.
When this experiment was repeated with the 10 µl of tris buffer containing 2.4 mM p-nitrophosphonate hapten (24 µM final concentration), the initial 400 nm absorbance was similar to the non-inhibited antibody solution. […] Instead, the 400 nm absorbance continued to decrease. […]

Which results are given for `O=[N+]([O-])c1ccc(P(=O)(O)O)cc1` [p-nitrophenylphosphonate]?
rate of hydrolysis of p-NPC in the presence of inhibitor ([1]; uninhibited rate 0.49 µmolar p-NPC per minute): 0.109 µM/min; rate of hydrolysis of p-NPC in the presence of inhibitor (400 nm absorbance) ([1]; uninhibited rate 0.0089 Abs/min): 0.002 Abs units/minute; 400 nm absorbance (p-nitrophenylcarbonate hydrolysis) in the presence of inhibitor [2]: did not rise
